Source: patent US20250144067A1, “PERSONALIZED STARVATION THERAPY FOR CANCER” (Faeth Therapeutics, Inc., priority 2021, published 2025)
Structures can show the parent of a compound that is named as a salt.

Columns and labels:
[1] = test system: NCI-H292 lung cancer cells; assay: FDA drug screening, complete media vs cholesterol-free media without statin (TABLE 1); assay type: cell-based, human
[2] = test system: NCI-H292 lung cancer cells; assay: FDA drug screening, complete media vs cholesterol-free media with simvastatin (TABLE 2); assay type: cell-based, human; details: for Cholesterol-free media + simvastatin (0.04 μM) / Complete Media: NCI-H292 cells
[3] = NCI-H292 cells, cholesterol-free media without statin
[4] = FDA library drug in cholesterol-free media with simvastatin 0.04 μM
[5] = FDA library drug in complete media
[6] = NCI-H292 cells, cholesterol-free media without statin, FDA drug library screen
[7] = NCI-H292 cells, complete media, FDA drug library screen
[8] = complete vs cholesterol-free media, >0 enhanced anti-cancer activity, about 0 neutral, <0 antagonist
[9] = FDA drug library screen, cholesterol-free media with simvastatin 0.04 μM
[10] = FDA drug library screen, complete media
[11] = complete media minus cholesterol-free media + simvastatin, >0 enhanced anti-cancer activity, about 0 neutral, <0 antagonist
[12] = Complete minus Cholesterol-free, greater than 0 enhanced anti-cancer activity, about 0 neutral, below 0 antagonist
[13] = NCI-H292 cells, FDA drug library screen, cholesterol-free media without statin
[14] = NCI-H292 cells, FDA drug library screen, complete media
[15] = complete media vs cholesterol-free media + simvastatin (0.04 μM), >0 enhanced anti-cancer activity, about 0 neutral, <0 antagonist
[16] = complete vs cholesterol-free media, greater than 0 enhanced anti-cancer activity, about 0 neutral, below 0 antagonists
[17] = cholesterol-free media with simvastatin 0.04 μM, FDA drug library screen (TABLE 2)
[18] = complete media, FDA drug library screen (TABLE 2)
[19] = complete media minus cholesterol-free media + simvastatin (0.04 μM), >0 enhanced anti-cancer activity, about 0 neutral, <0 antagonist
[20] = Complete minus Cholesterol-free, >0 enhanced anti-cancer activity, about 0 neutral, <0 antagonist
[21] = drug in cholesterol-free media with simvastatin 0.04 μM

## O=C1CCC[C@@H]2[C@H]3CCCN4CCC[C@H](CN12)[C@@H]34 [Sophoridine]
[1]; [3]
  Cholesterol-free: 1.507
[1]; NCI-H292 cells, complete media
  Complete: 1.042
[1]; complete vs cholesterol-free media, […]
  Difference: −0.46
[2]; [4]
  Cholesterol-free media + simvastatin (0.04 μM): 1.337
[2]; [5]
  Complete Media: 1.063
[2]; complete media vs cholesterol-free media + simvastatin (0.04 μM), […]
  Difference: −0.27

## CNC(=O)c1cc(Oc2ccc(NC(=O)Nc3ccc(Cl)c(C(F)(F)F)c3)cc2)ccn1 [Sorafenib]
[1]; [6]
  Cholesterol-free: 0.8045
[1]; [7]
  Complete: 1.015
[1]; [8]
  Difference: 0.21
[2]; [9]
  Cholesterol-free media + simvastatin (0.04 μM): 0.7364
[2]; [10]
  Complete Media: 0.915
[2]; [11]
  Difference: 0.18

## CCOc1ccc(Cc2cc([C@@H]3O[C@H](SC)[C@@H](O)[C@H](O)[C@H]3O)ccc2Cl)cc1 [Sotagliflozin]
[1]; [12]
  Difference: −0.11
[1]; [13]
  Cholesterol-free: 1.101
[1]; [14]
  Complete: 0.9895
[2]; [9]
  Cholesterol-free media + simvastatin (0.04 μM): 1.193
[2]; [10]
  Complete Media: 1.078
[2]; [15]
  Difference: −0.11

## CC(C)NCC(O)c1ccc(NS(C)(=O)=O)cc1 (centres unmarked) [Sotalol (hydrochloride)]
[1]; [3]
  Cholesterol-free: 1.39
[1]; NCI-H292 cells, complete media
  Complete: 0.9629
[1]; [16]
  Difference: −0.43
[2]; [9]
  Cholesterol-free media + simvastatin (0.04 μM): 0.8339
[2]; [10]
  Complete Media: 0.7583
[2]; [15]
  Difference: −0.08

## C[C@@H]1CN(c2c(F)c(N)c3c(=O)c(C(=O)O)cn(C4CC4)c3c2F)C[C@H](C)N1 [Sparfloxacin]
[1]; Complete minus Cholesterol-free, greater than 0 enhanced anti-cancer activity, about 0 neutral, below 0 antagonists
  Difference: −0.52
[1]; NCI-H292 cells in cholesterol-free media without statin
  Cholesterol-free: 1.45
[1]; NCI-H292 cells in complete media
  Complete: 0.9275
[2]; [9]
  Cholesterol-free media + simvastatin (0.04 μM): 0.949
[2]; [10]
  Complete Media: 1.118
[2]; [11]
  Difference: 0.17

## CN[C@@H]1[C@H](O)[C@H](NC)[C@H]2O[C@@]3(O)C(=O)C[C@@H](C)O[C@H]3O[C@@H]2[C@H]1O [Spectinomycin (dihydrochloride)]
[1]; [6]
  Cholesterol-free: 0.9841
[1]; [7]
  Complete: 1.077
[1]; [8]
  Difference: 0.09
[2]; [17]
  Cholesterol-free media + simvastatin (0.04 μM): 1.126
[2]; [18]
  Complete Media: 1.142
[2]; [19]
  Difference: 0.02

## CC(=O)S[C@@H]1CC2=CC(=O)CC[C@]2(C)[C@H]2CC[C@@]3(C)[C@@H](CC[C@@]34CCC(=O)O4)[C@H]12 [Spironolactone]
[1]; [20]
  Difference: 0.03
[1]; [6]
  Cholesterol-free: 1.102
[1]; [7]
  Complete: 1.134
[2]; [4]
  Cholesterol-free media + simvastatin (0.04 μM): 1.784
[2]; [5]
  Complete Media: 1.272
[2]; [15]
  Difference: −0.51

## CC(C)=CCC/C(C)=C/CC/C(C)=C/CC/C=C(\C)CC/C=C(\C)CCC=C(C)C [Squalene]
[1]; [6]
  Cholesterol-free: 1.273
[1]; [7]
  Complete: 1.566
[1]; [8]
  Difference: 0.29
[2]; [21]
  Cholesterol-free media + simvastatin (0.04 μM): 0.9877
[2]; drug in complete media
  Complete Media: 0.7931
[2]; [15]
  Difference: −0.19

## Cc1cn([C@H]2C=C[C@@H](CO)O2)c(=O)[nH]c1=O [Stavudine]
[1]; [12]
  Difference: −0.09
[1]; [13]
  Cholesterol-free: 0.9921
[1]; [14]
  Complete: 0.8994
[2]; [21]
  Cholesterol-free media + simvastatin (0.04 μM): 1.022
[2]; drug in complete media
  Complete Media: 0.8293
[2]; [15]
  Difference: −0.19

## CCCCCCCCCCCCCCCCCC(=O)O [Stearic acid]
[1]; [12]
  Difference: −0.14
[1]; [13]
  Cholesterol-free: 1.159
[1]; [14]
  Complete: 1.022
[2]; [9]
  Cholesterol-free media + simvastatin (0.04 μM): 1.741
[2]; [19]
  Difference: −1.08

## CC(C)(C)C(O)/C=C/c1ccc2c(c1)OCO2 (centres unmarked) [Stiripentol]
[1]; [20]
  Difference: 0.02
[1]; [6]
  Cholesterol-free: 0.9226
[1]; [7]
  Complete: 0.9415
[2]; [17]
  Cholesterol-free media + simvastatin (0.04 μM): 0.9313
[2]; [18]
  Complete Media: 0.8754
[2]; [19]
  Difference: −0.06

## O=C(O)[C@@H](S)[C@@H](S)C(=O)O [Succimer]
[1]; [3]
  Cholesterol-free: 1.406
[1]; NCI-H292 cells, complete media
  Complete: 0.9576
[1]; [16]
  Difference: −0.45
[2]; [21]
  Cholesterol-free media + simvastatin (0.04 μM): 1.252
[2]; drug in complete media
  Complete Media: 1.035
[2]; [15]
  Difference: −0.22

## O=C(O)CCC(=O)O [Succinic acid]
[1]; [6]
  Cholesterol-free: 0.9807
[1]; [7]
  Complete: 1.143
[1]; [8]
  Difference: 0.16
[2]; [17]
  Cholesterol-free media + simvastatin (0.04 μM): 1.729
[2]; [18]
  Complete Media: 1.686
[2]; [19]
  Difference: −0.04
